Reference: US20200121721A1, “METHODS FOR GENETIC MODIFICATION OF HEMATOPOIETIC CELLS” (THE BRIGHAM AND WOMEN'S HOSPITAL, INC., priority 2014, published 2020)
Square brackets hold non-standard residues; d marks the D form. Peptide text beside a SMILES is read from it. Aoe = N[C@@H](CCCCCC(=O)[C@@H]1CO1)C(=O)O

Key:
[1] = test system: primary human CD34+ cells from PBSC; assay: Screening of compounds which increase CD34+CD90+ cells (high throughput flow cytometry); format: cell-based; settings: for CD34+CD90+ population compared with that of DMSO treated CD34+ cells: PBSC CD34+ cells, 4 or 5-day culture with cytokines (CC100), FIG. 1A; for absolute number of CD34+CD90+ cells: screen, compared with other compounds, FIG. 1B
Description: Cells were stained with antihuman CD34 monoclonal antibody conjugated to phycoerythrin (PE), or allophycocyanin (APC), antihuman CD90 conjugated fluorescein isothiocyanate (FITC) or APC, CD38 APC, CD 3 tri-color (TC), CD19 TC, CD11b TC, CD41 TC, CD45 FITC and mouse CD45 APC. The flow cytometry data were collected using FACS Calibur flow cytometer (Becton Dickinson, San Jose, Calif., USA) or and analysed by using FLOWJO software.
To identify or confirm the molecules that expand CD34+CD90+ cells, the Inventors developed an assay using primary human CD34+ cells from PBSC and evaluated CD34 and CD90 expression by high throughput flow cytometry after a 4 or 5-day culture.
Using this assay, the Inventors screened FDA approved 446 compounds and 14 small molecule drugs including a panel of epigenetic modifiers as shown in Table 2. Human PBSC CD34+ cells were purified and cultured in IMDM with fetal bovine serum (FBS; GIBCO; final concentration 30%) and CC100 (a CD34 maintaining culture medium containing stem cell factor; SCF, Flt3 ligand; FL, Interleukin-3; IL3 and Interleukin-6; IL6; Stem Cell Technologies).

CD34+ cells [2] = assay: UM171 effect on division of CD34+ cells (total cell numbers); format: cell-based; settings: 50 nM to 500 nM (1 uM); commercial and synthesized UM171
PBMC CD34+ cells [3] = assay: In vitro colony formation in methylcellulose (CFU assay); format: cell-based, human; settings: eight days after plating
Experimental: Tubes of MethoCult® H4434 (Stem Cell Technologies) medium were thawed overnight in a 4° C. refrigerator. The next morning CB CD34+ cells were prepared at 10× the final concentration required. Cell suspensions of 2000 cells per 0.3 mL were prepared. Cells were added to 3 mL of MethoCult® medium for duplicate cultures. A 16 gauge blunt-end needle attached to a 3 cc syringe was used to dispense the cells and MethoCult® medium into culture dishes. 1.1 mL of cells was dispensed per 35 mm dish. The two dishes were placed into a 100 mm petri dish and a third, uncovered 35 mm dish containing 3 mL of sterile water was also added. All 3 dishes were then covered within the 100 mm petri dish. […] […] CFUs were counted under the microscopy.
Since the CD34+CD90+ cells are a CD34+ subpopulation with severe combined immunodeficient (SCID) repopulating activity (SRA), The Inventors next test whether the preferential expansion of these cells mediated by TSA or MS-275 treatment can lead to increased hematopoietic differentiation/proliferation in vitro and SRA engraftment in vivo. The Inventors first treated PBMC CD34+ cells with TSA or MS-275 treatments followed by assessment of in vitro colony formation in methylcellulose. […] To quantify large and small colonies, The Inventors classified as large as >50 and small as 5-50 clusters, respectively.

CD34+ cells [4] = assay: Annexin V staining (apoptosis); format: cell-based, human; settings: day 3, 5 and 7
Experimental: To investigate whether the lower total nucleated cell number observed in TSA treated culture was possibly due to apoptosis, annexin V staining with TSA, MS275 or DMSO treated cells on day 3, 5 and 7 was performed.

PBSC CD34+ cells [5] = assay: Ex vivo culture of PBSC CD34+ cells with TSA or MS275 (CD34+CD90+ expansion, cell growth); format: cell-based, human; settings: for expression of CD34+CD90+ cells after one day exposure: 24 hours exposure then washed or not washed, evaluated on day 3 and day 5; for growth rate compared with DMSO / cell growth (cell number) of CD34+ cells: FIG. 3A; for cell growth (cell number) of CD34+ cells: mean±SDV of three experiments; for absolute number of CD34+CD90+ cells: from day 5 to day 7
[6] = test system: cord blood CD34+CD90+ cells; settings: cited from earlier work
CD34+ cells [7] = assay: CFSE labeling to assess cell division; format: cell-based, human; settings: by day 5, CFSE
Experimental: Primary CD34+ cells were labeled for 10 minutes at 37° C. with 0.5 uM of carboxyfluorescein diacetate succinimidyl ester (CSFE; Invirtogen, NY, USA) in PBS. After […] of culture, cell were labeled with CD34 PE and analyzed for a progressive decline of fluoredcence intensity of CSFE using FACSCalibur flow cytometer.
To assess whether the lower total nucleated cell number observed in TSA treated culture was due to a delay in differentiation or proliferation, the Inventors performed a cell-division-monitoring dye carboxyfluorescein succinimidyl ester (CFSE) assay, a fluorescent cytoplasmic dye which allowed counting of cell divisions of CD34+ cells after in vitro culture. While 66.0% of non-treated CD34+ cells divided at least more than 4 times by day 5, only 9.02% of TSA treated cells went through a similar number of cell divisions (FIG. 3B).
The Inventors then investigated whether TSA treatment led to increased CD34+CD90+ cells through self-renewal proliferation as assessed by surface markers. Using CD34+CD90− cells as a control population, the cell division profile of CD34+CD90+ cells upon TSA treatment was analyzed using the CSFE assay after 5 and 7 days of in vitro culture.

PBSC CD34+ cells [8] = assay: Real-time PCR of stem cell related genes; format: cell-based, human; settings: 3 days of culture, relative to DMSO, p<0.05
Description: Inventors prepared RNA from cells treated with wild-type or scrambled peptide using TRIzol (Invitrogen). The Inventors synthesized cDNA using iScript cDNA Synthesis kit (Bio-Rad, CA, USA). To quantitate the level of mRNAs expression, The Inventors carried out polymerase chain reaction (PCR) amplification using iScript one-step RT-PCR kit with SYBER Green (Bio-Rad) and the PCR products were detected by use of SYBR green technology (ABI, Foster City, Calif., USA). GAPDH was used as an endogenous control. All samples were run in duplicate. Thermal cycler conditions were 50° C. for 2 minutes, 95° C. for 10 minutes, and 45 cycles of 95° C. for 0.30 minutes and 60° C. for 1 minute. Results were obtained as threshold cycle (Ct) values and normalized gene expression with GAPDH. Data were analyzed based on 2-ΔΔCT method using CFX Manager software (Bio-Rad). For QPCR primers see Table 1.
Next, to investigate the molecular mechanism responsible for the expansion of functional HSCs and HSPC observed following TSA treatment, the Inventors examined expression levels of a number of genes involved in self-renewal or differentiation of stem cells using realtime PCR.

CB CD34+ cells = assay: Engraftment of cultured CD34+ cells in NSG mice (SCID repopulating activity); format: in vivo
Experimental: NSG (NOD.Cg-Prkdcscid Il2rgtm1Wjl/SzJ, The Jackson Laboratory, ME, USA) mice were bred and maintained in the Children's Hospital Boston animal facility. All animal work has been approved by and done according to the guidelines of the IACUC under protocol 10-101832. The CB CD34+ cells treated with wild type-peptide and scrambled-peptide were injected intravenously via the tail vein into sub-lethally irradiated (220 rads) 8 to 16-week-old NSG mice. Engraftment was performed within 24 h after irradiation. Peripheral blood (PB) chimerism was monitored at 2 and 8 weeks post transplantation. Bone marrow (BM) chimerism was monitored at 8 weeks post transplantation. […] The percentage of human CD45+ cells was calculated as follows: % human CD45+ cells=No. human CD45+ cells/(No. human CD45+ cells + No. mouse CD45+ cells)×100. […]
Based on in vitro phenotypic analysis described above, The Inventors transplanted cells after culture for 5 or7 days with cytokine alone or TSA into NSG mice to evaluate immunodeficient (SCID) repopulating activity (SRA) as a measure of enhanced HSPC function. Because Vanheuden et al, reported that severe combined immunodeficient (SCID) repopulating activity (rSRA) is mediated by CD34+CD38CD90+CD45RA− cells after in vitro culture, the Inventors first analyzed SRA activity in peripheral blood (PB) 2 weeks after transplant.

PBMC CD34+ cells [9] = assay: Lentiviral transduction (GFP vector) of CD34+ cells; format: cell-based, human
Experimental: Lentiviral particles were generated by transient co-transfection of 293T cells with the lentiviral vectors pLL3.7, pHR'8.9ΔVPR and pCMV-VSVG. CD34+ cells were infected in medium containing lentiviral particles and 8 μg/ml protamin. The culture medium was then removed and replaced with fresh media.
Next, the Inventors investigated whether expansion of CD34+CD90+ cells by TSA could affect the lentiviral transduction efficacy. A transfer vector encoding green fluorescent protein (GFP) was used for evaluation of lentiviral transduction. PBMC CD34+ cells were cultured with or without TSA for 3 days, followed by lentiviral transduction with protamin twice for 48 hours (FIG. 15A).

In the case of `COc1cc2c(NC3CCN(C(C)C)CC3)nc(C3CCCCC3)nc2cc1OCCCN1CCCC1` [UNC0638], the “CD34+CD90+ population compared with that of DMSO treated CD34+ cells” value (shortened to “CD34+CD90+ population compared with that”) [1] is reported as “expanded CD34+CD90+ population”.
With `Cn1nnc(-c2ccc3c(c2)[nH]c2nc(Cc4ccccc4)nc(NC4CCC(N)CC4)c23)n1` (stereo not drawn) [UM171] the total cell numbers (CD34+ cells [2]) was “very similar”.
In the case of `Nc1ccccc1NC(=O)c1ccc(CNC(=O)OCc2cccnc2)cc1` [MS275], the “size of colonies derived from CFU-GM compared with control group” value (PBMC CD34+ cells [3]) is reported as “much larger than control group”, the “apoptotic cells (annexin V)” value (CD34+ cells [4]; 500 nM) is reported as “did not significantly increased apoptotic cells” and the “expression of CD34+CD90+ cells after one day exposure” value (PBSC CD34+ cells [5]) is reported as “limit the expression of CD34+CD90+ cells”. For the same compound, the “growth rate compared with DMSO” value (PBSC CD34+ cells [5]) was “about 2 times lower”, the “cell growth (cell number) of CD34+ cells” value (PBSC CD34+ cells [5]) was 16.7×10^4±1.06 and the “absolute number of CD34+CD90+ cells” value (PBSC CD34+ cells [5]) was “increased”. The “CD34+CD90+ population compared with that” value [1] was “expanded CD34+CD90+ population” and the “absolute number of CD34+CD90+ cells” value [1] was “expanded the absolute number of CD34+CD90+ cells more than that of other compounds”.
In the case of `CCCC(CCC)C(=O)O` [Valproic acid], the “expansion of CD34+CD90+ cells (reported)” value [6] is listed as “reported to expand CD34+CD90+ cells”.
In the case of `O=C1N[C@@H](Cc2ccccc2)C(=O)N2CCC[C@@H]2C(=O)N[C@@H](CCCCCC(=O)[C@@H]2CO2)C(=O)N[C@H]1Cc1ccccc1` [trapoxin] (cyclo(FF[dP][Aoe])), the “expansion of CD34+CD90+ cells (reported)” value [6] is listed as “reported to expand CD34+CD90+ cells”.
In the case of `CC(/C=C/C(=O)NO)=C\[C@@H](C)C(=O)c1ccc(N(C)C)cc1` [TSA, trichostatin], the “size of colonies derived from CFU-GM compared with control group” value (PBMC CD34+ cells [3]) is reported as “much larger than control group”, the “proportion of large (>50 clusters) and small (5-50 clusters) colonies” value (PBMC CD34+ cells [3]; FIG. 13B) is reported as “gave mainly rise to large colonies” and the “CD34+CD90+ cells less divided than CD34+CD90− cells” value (CD34+ cells [7]; TSA treatment) is reported as 31.4%. The “CD34+CD90+ cells more divided than CD34+CD90− cells” value (CD34+ cells [7]; TSA treatment) was “about 66.7%”, the “CD34+ cells divided at least more than 4 times” value (CD34+ cells [7]) was 9.02% and the “levels of transcripts for GATA1, GATA2, HOXA9, HOXB4, PTEN, SALL4, p53, TPO and CD34 genes” value (PBSC CD34+ cells [8]) was “higher levels of transcripts”. For the same compound, the “apoptotic cells (annexin V)” value (CD34+ cells [4]; 50 nM) was “did not significantly increased apoptotic cells”, the “percentage of human CD45+ engraftment in peripheral blood” value (CB CD34+ cells; 2 weeks after transplant, day 5 progeny of 2×10^4 CB CD34+ cells, vs cytokine alone) was “higher percentage of human CD45+ engraftment” and the “marrow-repopulating potential (human CD45+ cell engraftment in PB and BM)” value (CB CD34+ cells; 8 weeks after transplantation) was “enhances the marrow-repopulating potential”. The “lentiviral transduction for CD34+ cells ex vivo” value (PBMC CD34+ cells [9]) was “promoted the lentiviral transduction”, the “percentage of CD34+GFP+ cells” value (PBMC CD34+ cells [9]; 3 days culture with TSA, then lentiviral transduction, vs cells without treatment) was “higher than that of cells without treatment” and the “expression of CD34+CD90+ cells after one day exposure” value (PBSC CD34+ cells [5]) was “limit the expression of CD34+CD90+ cells”. For the same compound, the “growth rate compared with DMSO” value (PBSC CD34+ cells [5]) was “about 2 times lower”, the “cell growth (cell number) of CD34+ cells” value (PBSC CD34+ cells [5]) was 28.3×10^4±0.49 and the “expansion of CD34+CD90+ cells compared with DMSO treated cells” value (PBSC CD34+ cells [5]; day 3, day 5 and day 7, p<0.05) was “preferential expansion of CD34+CD90+ cells”. The “absolute number of CD34+CD90+ cells” value (PBSC CD34+ cells [5]) was “increased”, the “CD34+CD90+ population compared with that” value [1] was “expanded CD34+CD90+ population” and the “absolute number of CD34+CD90+ cells” value [1] was “expanded the absolute number of CD34+CD90+ cells more than that of other compounds”. For the same compound, the “expansion of CD34+CD90+ cells (reported)” value [6] was “reported to expand CD34+CD90+ cells”.
With `O=C(CCCCCCC(=O)Nc1ccccc1)NO` [SAHA] the “CD34+CD90+ population compared with that” value [1] was “expanded CD34+CD90+ population”.
For `CC(C)n1cnc2c(NCCc3ccc(O)cc3)nc(-c3csc4ccccc34)nc21` [SR1], the “CD34+CD90+ population compared with that” value [1] was “expanded CD34+CD90+ population”.
